Experimental data taken from US5633248A, “Amine compounds, their production and use” (priority 1994, dated 1997).
Structures can show the parent of a compound that is named as a salt.

Tests used:
[1] = target: T1, Rat GnRH Receptor (Rattus norvegicus, UniProt P30969); assay: ^125 I-leuprolerin binding inhibition, rat anterior pituitary membrane fraction; design: species or system rat (Wistar); conditions: 4° C. for 90 minutes, read-out: GnRH-receptor binding inhibitory activity (IC50, μM) Rat
T1 construct: from tissue; host or cells: anterior pituitary of male Wistar rats (8 weeks old), membrane fraction
T1 sequence (P30969 1-327): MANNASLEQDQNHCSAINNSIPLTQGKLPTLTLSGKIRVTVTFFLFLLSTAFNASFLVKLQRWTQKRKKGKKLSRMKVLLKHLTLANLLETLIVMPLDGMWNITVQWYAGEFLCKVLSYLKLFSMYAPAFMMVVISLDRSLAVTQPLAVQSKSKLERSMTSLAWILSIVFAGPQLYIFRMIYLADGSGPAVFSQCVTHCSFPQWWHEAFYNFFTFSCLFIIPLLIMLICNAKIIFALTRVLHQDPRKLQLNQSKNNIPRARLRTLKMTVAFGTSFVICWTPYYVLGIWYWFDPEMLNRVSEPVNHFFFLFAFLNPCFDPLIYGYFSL
Procedure: A tube was filled with 10 μl of an aqueous solution of leuprolerin (3×10^4 M) and lactoperoxidase (0.01 mg/ml) followed by addition of 10 μl of Na^125 I solution (37 MBq). After stirring, 10 μl of 0.001% H2 O2 was added and the reaction was conducted at room temperature for 20 minutes. The reaction was stopped by adding 700 μl of 0.05% TFA and the reaction mixture was subjected to reversed-phase HPLC under the conditions set forth below. ^125 I-leuprolerin was eluted with a retention time of 26-27 minutes. Forty rats (8 weeks old, male) of Wistar strain were decapitated under no anesthesia and the anterior pituitary isolated from each animal was washed with an ice-cooled homogenate buffer (25 mM Tris (tris(hydroxylmethyl)aminomethane)-HCl, 0.3M sucrose, 1 mM EGTA (ethylene-bis(oxyethylenenitrilo)tetraacetic acid), 0.25 mM PMSF (phenylmethylsulfonyl fluoride), 10 U/ml aprotinin, 1 μg/ml pepstatin, 20 μg/ml leupeptin, 100 μg/ml phosphoramidon, 0.03% sodium azide; pH 7.5). The anterior pituitary was suspended in 2 ml of the same homogenate buffer as above and homogenized using a Polytron homogenizer. The homogenate thus prepared was centrifuged at 700 xg for 15 minutes and the supernatant was transferred to an ultracentrifuge cuvette and further centrifuged at 100,000 xg for 1 hour to provide a membrane fraction pellet. This pellet was suspended in 2 ml of an assay buffer (25 mM Tris-HCl, 1 mM ethylenediaminetetraacetic acid (EDTA), 0.1% bovine serum albumin (BSA), 0.25 mM PMSF, 1 μg/ml pepstatin, 20 μg/ml leupeptin, 100 μg/ml phosphoramidon, 0.03% sodium azide; pH 7.5) and centrifuged at 100,000 xg for 1 hour. The membrane fraction recovered as a pellet was resuspended in 10 ml of the same assay buffer as above, distributed into vials, preserved at -80° C., and reconstituted before use. The rat and human membrane fractions prepared under (B) and (D) were respectively diluted with the assay buffer to make 200 μg/ml each and 188 μl aliquots of each dilution were distributed into tubes. The bovine membrane fraction prepared under (C) was diluted with the assay buffer to make 750 μg/ml and 188 μl aliquots of the dilution were distributed into tubes. When the rat anterior pituitary membrane fraction was used, 2 μl of 0.1 mM compound/60% dimethyl sulfoxide (DMSO) and 10 μl of 38 nM ^125 I-leuprolerin were concurrently added. […] For determination of maximum binding, a reaction mixture was prepared by adding 2 μl of 60% DMSO and 10 μl of 38 nM ^125 I-leuprolerin. For determination of non-specific binding, a reaction mixture was prepared using 2 μl of 100 μM leuprolerin/60% DMSO and 10 μl of […] ^125 I-leuprolerin. When the rat and bovine anterior pituitary membrane fractions were used, each reaction was carried out at 4° C. for 90 minutes. On the other hand, when the human GnRH receptor-expressed CHO cell membrane fraction was used, the reaction was conducted at 25° C. for 60 minutes. After completion of the reaction, the reaction mixture was suction-filtered through a polyethyleneimine-treated Whatman glass filter (GF-F) [trademark;whatman]. After filtration, the radioactivity of the residual ^125 I-leuprolerin on the filter was measured using a γ-counter. The computation formula of (TB-SB)/(TB-NSB)×100 (SB=radioactivity bound in the presence of the test compound, TB=maximum amount of radioactivity bound, NSB=amount of radioactivity nonspecifically bound) was calculated to find the binding inhibition rate for the test compound. Moreover, the inhibition rate was determined by varying the concentration of each test compound and the concentration of the compound causing 50% inhibition of binding (IC50 value) was calculated by Hill plot.

[2] = target: T2, Human GnRH receptor (Homo sapiens, UniProt P30968); assay: ^125 I-leuprolerin binding inhibition, human GnRH receptor-expressed CHO cell membrane fraction; conditions: 25° C. for 60 minutes, read-out: GnRH-receptor binding inhibitory activity (IC50, μM) Man
T2 construct: expressed in transfected cells; host or cells: CHO (Chinese hamster ovary) cells, membrane fraction
T2 sequence (P30968 1-328): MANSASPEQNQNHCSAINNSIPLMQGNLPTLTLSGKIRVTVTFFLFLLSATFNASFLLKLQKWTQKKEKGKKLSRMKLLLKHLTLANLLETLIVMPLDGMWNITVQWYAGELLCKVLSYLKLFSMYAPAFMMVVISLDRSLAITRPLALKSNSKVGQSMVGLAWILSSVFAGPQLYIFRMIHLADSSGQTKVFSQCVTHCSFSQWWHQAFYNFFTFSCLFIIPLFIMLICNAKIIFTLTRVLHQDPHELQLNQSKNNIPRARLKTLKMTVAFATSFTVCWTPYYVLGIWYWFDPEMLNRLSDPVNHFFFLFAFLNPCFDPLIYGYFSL
Procedure: A tube was filled with 10 μl of an aqueous solution of leuprolerin (3×10^4 M) and lactoperoxidase (0.01 mg/ml) followed by addition of 10 μl of Na^125 I solution (37 MBq). After stirring, 10 μl of 0.001% H2 O2 was added and the reaction was conducted at room temperature for 20 minutes. The reaction was stopped by adding 700 μl of 0.05% TFA and the reaction mixture was subjected to reversed-phase HPLC under the conditions set forth below. ^125 I-leuprolerin was eluted with a retention time of 26-27 minutes. […] To the sediment was added 10 ml of a cell homogenate buffer (10 mM NaHCO3, 5 mM EDTA, pH 7.5) and the mixture was homogenized using a Polytron homogenizer. The homogenate was centrifuged at 400 xg for 15 minutes and the supernatant was transferred to an ultracentrifuge cuvette and centrifuged at 100,000 xg for 1 hour to prepare a membrane fraction pellet. This pellet was suspended in 2 ml of the assay buffer and further centrifuged at 100,000 xg for 1 hour. The membrane fraction recovered as a pellet was resuspended in 20 ml of the assay buffer, distributed into vials, preserved at -80° C., and reconstituted before use. The rat and human membrane fractions prepared under (B) and (D) were respectively diluted with the assay buffer to make 200 μg/ml each and 188 μl aliquots of each dilution were distributed into tubes. The bovine membrane fraction prepared under (C) was diluted with the assay buffer to make 750 μg/ml and 188 μl aliquots of the dilution were distributed into tubes. When the rat anterior pituitary membrane fraction was used, 2 μl of 0.1 mM compound/60% dimethyl sulfoxide (DMSO) and 10 μl of 38 nM ^125 I-leuprolerin were concurrently added. […] For determination of maximum binding, a reaction mixture was prepared by adding 2 μl of 60% DMSO and 10 μl of 38 nM ^125 I-leuprolerin. For determination of non-specific binding, a reaction mixture was prepared using 2 μl of 100 μM leuprolerin/60% DMSO and 10 μl of […] ^125 I-leuprolerin. When the rat and bovine anterior pituitary membrane fractions were used, each reaction was carried out at 4° C. for 90 minutes. On the other hand, when the human GnRH receptor-expressed CHO cell membrane fraction was used, the reaction was conducted at 25° C. for 60 minutes. After completion of the reaction, the reaction mixture was suction-filtered through a polyethyleneimine-treated Whatman glass filter (GF-F) [trademark;whatman]. After filtration, the radioactivity of the residual ^125 I-leuprolerin on the filter was measured using a γ-counter. The computation formula of (TB-SB)/(TB-NSB)×100 (SB=radioactivity bound in the presence of the test compound, TB=maximum amount of radioactivity bound, NSB=amount of radioactivity nonspecifically bound) was calculated to find the binding inhibition rate for the test compound. Moreover, the inhibition rate was determined by varying the concentration of each test compound and the concentration of the compound causing 50% inhibition of binding (IC50 value) was calculated by Hill plot.

Row | SMILES | IC50 [1] [µM] | IC50 [2] [µM]
1 | COc1cc2c(cc1OC)CC1(CCCCN1CCCC(CCCNC(=O)CCc1ccccc1)(c1ccccc1)c1ccccc1)CC2 (centres unmarked) [II-64, 3,4-Dihydro-6,7-dimethoxy-1'-{4,4-diphenyl-7-[(3-phenylpropionyl)amino]heptyl}spiro[naphthalene-2(1H),2'-piperidine] hydrochloride] | 0.009 | 0.2
2 | COc1cc2c(cc1OC)CC1(CCCCN1CCCC(CCCNC(=O)COc1ccccc1)(c1ccccc1)c1ccccc1)CC2 (centres unmarked) [II-61, 3,4-Dihydro-6,7-dimethoxy-1'-{4,4-diphenyl-7-[(phenoxyacetyl)amino]heptyl}spiro[naphthalene-2(1H),2'-piperidine] hydrochloride] | 0.01 | –
3 | COc1cccc2c1CC1(CCCCN1CCCC(CCCNC(C)=O)(c1ccccc1)c1ccccc1)CC2 (centres unmarked) [II-44, 1'-(7-Acetylamino-4,4-diphenylheptyl)-3,4-dihydro-8-methoxyspiro[naphthalene-2(1H),2'-piperidine] dihydrochloride] | 0.4 | –
4 | COc1cc2c(cc1OC)CC1(CCCCN1CCCC(CCCNC(=O)Cc1ccc3c(c1)OCO3)(c1ccccc1)c1ccccc1)CC2 (centres unmarked) [II-60, 3,4-Dihydro-6,7-dimethoxy-1'-{4,4-diphenyl-7-[(3,4-methylenedioxyphenylacetyl)amino]heptyl}spiro[naphthalene-2(1H),2'-piperidine] hydrochloride] | 0.002 | 0.1
5 | COc1cc2c(cc1OC)CC1(CCCCN1CCCC(CCCNC(=O)Cc1ccsc1)(c1ccccc1)c1ccccc1)CC2 (centres unmarked) [II-63, 3,4-Dihydro-6,7-dimethoxy-1'-{4,4-diphenyl-7-[(3-thienylacetyl)amino]heptyl}spiro[naphthalene-2(1H),2'-piperidine] hydrochloride] | 0.001 | 0.4
6 | COc1cc2c(cc1OC)CC1(CCCCN1CCCC(CCCNC(C)=O)(c1ccccc1)c1ccccc1)CC2 (centres unmarked) [II-46, 1'-(7-Acetylamino-4,4-diphenylheptyl)-3,4-dihydro-6,7-dimethoxyspiro[naphthalene-2(1H),2'-piperidine] dihydrochloride] | 0.003 | –
7 | COc1ccc(CC(=O)NCCCC(CCCN2CCCCC23CCc2cc(OC)c(OC)cc2C3)(c2ccc(F)cc2)c2ccc(F)cc2)cc1 (centres unmarked) [II-68, 3,4-Dihydro-6,7-dimethoxy-1'-{4,4-bis(4-fluorophenyl)-7-[(4-methoxyphenylacetyl)amino]heptyl}spiro[naphthalene-2(1H),2'-piperidine] hydrochloride] | 0.009 | 0.4
8 | COc1cc2c(cc1OC)CC(N(CCCC(CCCNC(C)=O)(c1ccccc1)c1ccccc1)Cc1ccccc1)CC2 (centres unmarked) [II-43, 7-Acetylamino-1-{N-benzyl-N-[2-(6,7-dimethoxy-1,2,3,4-tetrahydronaphthyl)]amino}-4,4-diphenylheptane dihydrochloride] | 0.2 | –
9 | COc1cc2c(cc1OC)CC1(CCCCN1CCCC(CCCNC(=O)Cc1ccccc1)(c1ccccc1)c1ccccc1)CC2 (centres unmarked) [II-48, 3,4-Dihydro-6,7-dimethoxy-1'-[4,4-diphenyl-7-(phenylacetylamino)heptyl]spiro[naphthalene-2(1H),2'-piperidine] hydrochloride] | 0.002 | 0.2
10 | COc1cc2c(cc1OC)CC1(CCCCN1CCCC(CCCNC(=O)Cc1ccc([N+](=O)[O-])cc1)(c1ccccc1)c1ccccc1)CC2 (centres unmarked) [II-53, 3,4-Dihydro-6,7-dimethoxy-1'-{4,4-diphenyl-7-[(4-nitrophenylacetyl)amino]heptyl}spiro[naphthalene-2(1H),2'-piperidine] hydrochloride] | 0.01 | 0.8
11 | COc1ccc2c(c1)CCC1(CCCCN1CCCC(CCCNC(C)=O)(c1ccccc1)c1ccccc1)C2 (centres unmarked) [II-45, 1'-(7-Acetylamino-4,4-diphenylheptyl)-3,4-dihydro-6-methoxyspiro[naphthalene-2(1H),2'-piperidine] dihydrochloride] | 0.08 | –
12 | COc1ccc(CC(=O)NCCCC(CCCN2CCCCC23CCc2cc(OC)c(OC)cc2C3)(c2ccccc2)c2ccccc2)cc1OC (centres unmarked) [II-59, 3,4-Dihydro-6,7-dimethoxy-1'-{7-[(3,4-dimethoxyphenylacetyl)amino]-4,4-diphenylheptyl}spiro[naphthalene-2(1H),2'-piperidine] hydrochloride] | 0.02 | 0.4
13 | COc1ccc2c(c1)CCC1(CCCCN1CCCC(CCNC(C)=O)(c1ccccc1)c1ccccc1)C2 (centres unmarked) [II-37, 3,4-Dihydro-6-methoxy-1'-(6-acetylamino-4,4-diphenylhexyl)spiro[naphthalene-2(1H),2'-piperidine] dihydrochloride] | 0.3 | –
